In US20170151268A1, “GLYCAN THERAPEUTICS AND RELATED METHODS THEREOF” (KALEIDO BIOSCIENCES, INC., priority 2015, published 2017):
≈ marks a conversion by molar mass, not a printed value.

What was measured:
[1] = 25° C., reported by Sigma-Aldrich; cited from earlier work
gut microbiota = assay: Mouse model of Clostridium difficile infection, gut microbiota 16S rRNA sequencing; assay type: in vivo; settings: Day 6; predicted from 16S rRNA sequencing using PICRUST
Procedure: (§1) Mice (female C57BL/6, 8-10 weeks old, 16-18 grams each; Harlan Laboratories, Indianapolis, Ind.) were housed in groups of 3 per cage, with 4 cages per treatment group. Mice were exposed to a cocktail of antibiotics in their drinking water for a period of 9 days, starting on day −14, fourteen days before Clostridium difficile challenge on day 0. The antibiotic cocktail consisted of 1% glucose, kanamycin (0.5 mg/ml), gentamicin (0.044 mg/ml), colistin (1062.5 U/ml), metronidazole (0.269 mg/ml), ciprofloxacin (0.156 mg/ml), ampicillin (0.1 mg/ml) and vancomycin (0.056 mg/ml). Three days prior to Clostridium difficile challenge (on Day −3), mice received a single dose of clindamycin (10 mg/kg) in a volume of 0.5 mL distilled water by oral gavage (PO) (see Table 10). All chemicals were purchased from Sigma-Aldrich Corp. (St. Louis, Mo.). On day 0, mice were challenged with Clostridium difficile (strain VPI 10463 (ATCC-43255)) spores at approximately 4.5 log10 spores per mouse, PO, in a dose volume of 0.5 mL distilled water.
To determine how the gut microbiota composition responds to treatment with glycan therapeutics, 16S rRNA sequencing of fecal pellets on the V4 variable region using standard protocols from the Earth Microbiome Project was performed (www.earthmicrobiome.org/emp-standard-protocols/). […]

[2] = test system: Clostridium difficile (strain VPI 10463 (ATCC-43255)); assay: Mouse model of Clostridium difficile infection, disease-associated phenotypes; assay type: in vivo
Procedure: This experiment was conducted to analyze the effects of glycan therapeutics in a mouse model of Clostridium difficile infection (Chen et al, 2008, A Mouse Model of Clostridium difficile—Associated Disease. Gastroenterology 135(6), 1984-1992). In this model, normal mice were exposed to an antibiotic regimen that renders them susceptible to C. difficile infection and disease symptoms, similar with respect to their development and manifestation of human clinical disease. In humans, the disease is most often the result of exposure to broad spectrum antibiotics which is thought to result in intestinal dysbiosis and subsequent increased colonic colonization with C. difficile. The increased bio-burden of C. difficile leads to toxin production by the bacterium and colonic inflammation. Clinical manifestations in humans include diarrhea, weight loss, intestinal inflammation, fever and dehydration. The clinical incidence of C. difficile infection and disease is about 750,000 cases per year in the US.
as §1
Disease-associated phenotypes were recorded for a duration of ten days starting on the day of Clostridium difficile challenge (on day 0) through day 10. The phenotypes, including lethargy, hunched posture and ruffled coat, wet tail/abdomen and hypothermia were scored from 0 to 4: Normal=0; Lethargic=1; Lethargic+Hunched=2; Lethargic+Hunched+Wet tail/abdomen (diarrhea)=3; and Lethargic+Hunched+Wet tail/abdomen+Hypothermic=4. Death (day 0 to day 10 or 11) and weight (day 1 to day 7 and day 10) of the animals was also monitored and recorded.
In these studies, all animals with wet tail/abdomen (diarrhea; clinical score of “3”) progressed to death. Diarrhea is an indication of colonic inflammation and hemorrhage and is a contributing factor to the weight loss seen in rodent models of C. difficile colonization/infection.
A treatment's ability to protect animals from death through day 6 in these experiments indicates disease prevention, e.g., in a human.
In addition, carriage of Clostridium difficile spores, which is indicative of Clostridium difficile gut colonization in both mice and humans, was assessed daily from day 0 to day 6. For spore CFU enumeration, fecal pellets from the mice were suspended in 50% ethanol in phosphate-buffered saline (PBS) and vortexed. […]
Effects of treatments was assessed by comparing the disease-associated phenotypes in glycan-treated, untreated (plain water) and vancomycin-treated groups. […]

Row | SMILES | aqueous solubility [1] | aqueous solubility as Brix [1] | predicted functional potential of the gut microbiome to convert primary bile acids to secondary bile acids (gut microbiota) | animals died by day 10 ([2]; PO gavage QD days 0 to 4) | animals survived to day 7 ([2]; PO gavage QD days 0 to 4) | clinical score of survivors (0 to 4) ([2]; after treatments were discontinued, through day 10 or 11) | C. difficile spores in the feces ([2]; days 0-6) | clinical signs on day 10 ([2]; mouse, in vivo)
1 | O=C[C@H](O)[C@@H](O)[C@H](O)[C@H](O)CO [D-glucose] | 909 mg/mL (≈ 5050 mM) | 48 Brix | – | – | – | – | – | –
2 | CN[C@H](CC(C)C)C(=O)N[C@H]1C(=O)N[C@@H](CC(N)=O)C(=O)N[C@H]2C(=O)N[C@H]3C(=O)N[C@H](C(=O)N[C@H](C(=O)O)c4cc(O)cc(O)c4-c4cc3ccc4O)[C@H](O)c3ccc(c(Cl)c3)Oc3cc2cc(c3O[C@@H]2O[C@H](CO)[C@@H](O)[C@H](O)[C@H]2O[C@H]2C[C@](C)(N)[C@H](O)[C@H](C)O2)Oc2ccc(cc2Cl)[C@H]1O [vancomycin] | – | – | not observed | 17% | 100% | above 0 | no detectable spores | exhibited clinical signs
